# Experimental data: patent US8367838B2, “Amines or amino alcohols as GLYT1 inhibitors” (Hoffmann-La Roche Inc., priority 2009, dated 2013)
# Counter-ions that a name gives are not always drawn.
# Target: T1, mGlyT-1b (Mus musculus, UniProt P28571)
# T1 construct: host or cells: Flp-in-CHO
# T1 sequence (P28571 1-651 isoform P28571-2): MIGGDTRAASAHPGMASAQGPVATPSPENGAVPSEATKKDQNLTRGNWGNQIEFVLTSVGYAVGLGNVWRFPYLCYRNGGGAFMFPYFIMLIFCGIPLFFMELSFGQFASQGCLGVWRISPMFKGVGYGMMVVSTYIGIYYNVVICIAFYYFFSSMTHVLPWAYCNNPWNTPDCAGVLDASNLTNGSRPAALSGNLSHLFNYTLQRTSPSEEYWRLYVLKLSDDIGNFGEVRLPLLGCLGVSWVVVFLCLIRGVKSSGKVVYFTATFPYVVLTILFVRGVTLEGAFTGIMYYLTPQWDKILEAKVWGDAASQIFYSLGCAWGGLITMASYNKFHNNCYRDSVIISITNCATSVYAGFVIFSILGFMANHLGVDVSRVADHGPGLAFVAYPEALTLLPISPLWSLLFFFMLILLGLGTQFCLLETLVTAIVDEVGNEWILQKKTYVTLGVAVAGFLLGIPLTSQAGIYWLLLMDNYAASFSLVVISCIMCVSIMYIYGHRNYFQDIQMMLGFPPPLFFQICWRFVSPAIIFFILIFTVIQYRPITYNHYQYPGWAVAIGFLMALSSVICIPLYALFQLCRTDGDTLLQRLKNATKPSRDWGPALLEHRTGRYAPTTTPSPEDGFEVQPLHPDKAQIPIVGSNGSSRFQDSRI
# Experiment: Glycine uptake inhibition assay (mGlyT-1b), [3H]-glycine uptake in transfected Flp-in-CHO cells
# Format: cell-based
# Details: Flp-in-CHO cells transfected with mGlyT-1b cDNA; [3H]-glycine 60 nM and 25 μM non-radioactive glycine; 20 min preincubation at 22° C.; read-out: IC50 (μM) at GlyT-1; Ic50 (hglyt1b)
# Procedure: Nutrient mixture F-12 (Gibco Life-technologies), fetal bovine serum (FBS) 5%, (Gibco life technologies), Penicillin/Streptomycin 1% (Gibco life technologies), Hygromycin 0.6 mg/ml (Gibco life technologies), Glutamine 1 mM Gibco life technologies).
# 150 mM NaCl, 10 mM Hepes-Tris, pH 7.4, 1 mM CaCl2, 2.5 mM KCl, 2.5 mM MgSO4, 10 mM (+) D-glucose. Flp-in™-CHO (Invitrogen Cat n° R758-07) cells stably transfected with mGlyT1b cDNA.
# Glycine Uptake Inhibition Assay (mGlyT-1b)
# On day 1 mammalian cells, (Flp-in™-CHO), transfected with mGlyT-1b cDNA, were plated at the density of 40,000 cells/well in complete F-12 medium, without hygromycin in 96-well culture plates. On day 2, the medium was aspirated and the cells were washed twice with uptake buffer (UB). The cells were then incubated for 20 min at 22° C. with either (i) no potential competitor, (ii) 10 mM non-radioactive glycine, (iii) a concentration of a potential inhibitor. A range of concentrations of the potential inhibitor was used to generate data for calculating the concentration of inhibitor resulting in 50% of the effect (e.g. IC50, the concentration of the competitor inhibiting glycine uptake of 50%). A solution was then immediately added containing [^3H]-glycine 60 nM (11-16 Ci/mmol) and 25 μM non-radioactive glycine. The plates were incubated with gentle shaking and the reaction was stopped by aspiration of the mixture and washing (three times) with ice-cold UB. The cells were lysed with scintillation liquid, shaken 3 hours and the radioactivity in the cells was counted using a scintillation counter.
row,SMILES,IC50 [µM]
1,"CS(=O)(=O)c1cccc(-c2ccc([C@@H](O)[C@@H](N)c3ccc(Cl)c(Cl)c3)c(F)c2)c1 (racemic) [Example 1, rac-erythro-[2-Amino-2-(3,4-dichloro-phenyl)-1-(3-fluoro-3′-methanesulfonyl-biphenyl-4-yl)-ethanol trifluoroacetate]",0.025
2,"Cc1ccc([C@H](N)[C@H](O)c2ccc(OC(C)C)cc2)cc1Cl (racemic) [Example 56, rac-erythro-2-Amino-2-(3-chloro-4-methylphenyl)-1-(4-isopropoxy-phenyl)-ethanol]",0.381
3,"Cc1cc(OC(C)C)ncc1[C@@H](O)[C@@H](N)c1ccc(Cl)c(Cl)c1 (racemic) [Example 30, rac-erythro-[2-Amino-2-(3,4-dichloro-phenyl)-1-(6-isopropoxy-4-methyl-pyridin-3-yl)-ethanoldihydrochloride]",0.577
4,"Cc1nc(OC(C)C)ccc1[C@@H](O)[C@@H](N)c1ccc(Cl)c(Cl)c1 (racemic) [Example 27, rac-erythro-[2-Amino-2-(3,4-dichloro-phenyl)-1-(6-isopropoxy-2-methyl-pyridin-3-yl)-ethanoldihydrochloride]",0.259
5,"N[C@@H](c1ccc(Cl)cc1)[C@H](O)c1ccc(OCC(F)(F)C(F)(F)F)cc1F (racemic) [Example 101, rac-erythro-2-Amino-2-(4-chloro-phenyl)-1-[2-fluoro-4-(2,2,3,3,3-pentafluoro-propoxy)-phenyl]-ethanol]",0.334
6,"Cc1cc([C@@H](O)[C@@H](N)c2ccc(Cl)c(Cl)c2)ccc1-c1cncc(F)c1 (racemic) [Example 14, rac-erythro-[2-Amino-2-(3,4-dichloro-phenyl)-1-[4-(5-fluoro-pyridin-3-yl)-3-methyl-phenyl]-ethanolbis-trifluoroacetate]",0.275
7,"N[C@@H](c1ccc(Cl)c(Cl)c1)[C@H](O)c1ccc(OC2CCOCC2)nc1 (racemic) [Example 22, rac-erythro-[2-Amino-2-(3,4-dichloro-phenyl)-1-[6-(tetrahydro-pyran-4-yloxy)-pyridin-3-yl]-ethanoldihydrochloride]",0.131
8,"CS(=O)(=O)c1cccc(-c2ccc([C@@H](O)[C@@H](N)c3ccc(Cl)c(Cl)c3)c(F)c2)c1 (single isomer, unassigned) [Example 6, (1R,2S or 1S,2R)-2-Amino-2-(3,4-dichloro-phenyl)-1-(3-fluoro-3′-methanesulfonyl-biphenyl-4-yl)-ethanol hydrochloride]",0.012
9,"C[C@@](O)(c1ccc(-c2ccccc2)cc1)[C@@H](N)c1ccc(Cl)cc1 (racemic) [Example 36, rac-erythro-[1-Amino-2-biphenyl-4-yl-1-(4-chloro-phenyl)-propan-2-ol trifluoroacetate]",0.3
10,"CC(Oc1ccc([C@@H](O)[C@@H](N)c2ccc(Cl)cc2)cc1)C(F)(F)F (mixture of isomers) [Example 102, rac-erythro-2-Amino-2-(4-chloro-phenyl)-1-[4-(2,2,2-trifluoro-1-methyl-ethoxy)-phenyl]-ethanol]",0.384
11,"N[C@@H](c1ccc(Cl)c(Cl)c1)[C@H](O)c1ccc(OC2CCOCC2)c(F)c1 (racemic) [Example 18, rac-erythro-[2-Amino-2-(3,4-dichloro-phenyl)-1-[3-fluoro-4-(tetrahydro-pyran-4-yloxy)-phenyl]-ethanol hydrochloride]",0.049
12,"Cc1cc([C@@H](O)[C@@H](N)c2ccc(Cl)c(Cl)c2)cnc1OC1CCOC1 (mixture of isomers) [Example 31, rac-erythro-[(rac)-2-Amino-2-(3,4-dichloro-phenyl)-1-[5-methyl-6-(tetrahydro-furan-3-yloxy)-pyridin-3-yl]-ethanoldihydrochloride]",0.646
13,"CC(=O)N1CCC(Oc2ccc([C@@H](O)[C@@H](N)c3ccc(Cl)c(Cl)c3)cc2)CC1 (racemic) [Example 46, rac-erythro-[1-(4-[4-[2-Amino-2-(3,4-dichloro-phenyl)-1-hydroxy-ethyl]-phenoxy]-piperidin-1-yl)-ethanone]",0.262
14,"Cc1ccc([C@H](N)[C@H](O)c2ccc(OC3CCOCC3)cc2)cc1Cl (racemic) [Example 54, rac-erythro-[2-Amino-2-(3-chloro-4-methyl-phenyl)-1-[4-(tetrahydro-pyran-4-yloxy)-phenyl]-ethanol]",0.104

# Further lines, results first:
row,IC50 [µM],SMILES
1,0.047,"CS(=O)(=O)c1cncc(-c2ccc([C@@H](O)[C@@H](N)c3ccc(Cl)c(Cl)c3)cc2)c1 (racemic) [Example 82, rac-erythro-2-Amino-2-(3,4-dichloro-phenyl)-1-[4-(5-methanesulfonyl-pyridin-3-yl)-phenyl]-ethanol]"
2,0.031,"N[C@@H](c1ccc(Cl)c(Cl)c1)[C@H](O)c1ccc(-c2cccnc2)cc1 (racemic) [Example 81, rac-erythro-2-Amino-2-(3,4-dichloro-phenyl)-1-(4-pyridin-3-yl-phenyl)-ethanol]"
3,0.095,"N[C@@H](c1ccc(Cl)c(F)c1)[C@H](O)c1ccc(-c2cncc(F)c2)cc1 (racemic) [Example 85, rac-erythro-2-Amino-2-(4-chloro-3-fluoro-phenyl)-1-[4-(5-fluoro-pyridin-3-yl)-phenyl]-ethanol]"
4,0.139,"N[C@@H](c1ccc(Cl)cc1)[C@H](O)c1ccc(-c2cncnc2)cc1 (racemic) [Example 65, rac-erythro-2-Amino-2-(4-chloro-phenyl)-1-(4-pyrimidin-5-yl-phenyl)-ethanol]"
5,0.733,"N[C@@H](c1ccc(C(F)(F)F)c(F)c1)[C@H](O)c1ccc(-c2cncc(F)c2)cc1 (racemic) [Example 96, rac-erythro-2-Amino-1-[4-(5-fluoro-pyridin-3-yl)-phenyl]-2-(3-fluoro-4-trifluoromethyl-phenyl)-ethanol]"
6,0.305,"CN(C)c1cccc(-c2ccc([C@@H](O)[C@@H](N)c3ccc(Cl)c(Cl)c3)cc2)c1 (racemic) [Example 89, rac-erythro-2-Amino-2-(3,4-dichloro-phenyl)-1-(3′-dimethylamino-biphenyl-4-yl)-ethanol]"
7,0.261,"COCc1cccc(-c2ccc([C@@H](O)[C@@H](N)c3ccc(Cl)cc3)cc2)c1 (racemic) [Example 60, rac-erythro-2-Amino-2-(4-chloro-phenyl)-1-(3′-methoxymethyl-biphenyl-4-yl)-ethanol hydrochloride]"
8,0.851,"CC(C)Oc1cccc(-c2ccc([C@@H](O)[C@@H](N)c3ccc(Cl)c(Cl)c3)cc2)c1 (racemic) [Example 106, rac-erythro-2-Amino-2-(3,4-dichloro-phenyl)-1-(3′-isopropoxy-biphenyl-4-yl)-ethanol]"
9,0.544,"N[C@@H](c1ccc(Cl)cc1)[C@H](O)c1ccc(-c2cccc(Cl)c2)cc1 (racemic) [Example 74, rac-erythro-2-Amino-1-(3′-chloro-biphenyl-4-yl)-2-(4-chloro-phenyl)-ethanol]"
10,0.217,"Nc1ccc(-c2ccc([C@@H](O)[C@@H](N)c3ccc(Cl)cc3)cc2)cn1 (racemic) [Example 69, rac-erythro-2-Amino-1-[4-(6-amino-pyridin-3-yl)-phenyl]-2-(4-chloro-phenyl)-ethanol]"
11,0.173,"CC(=O)Nc1cccc(-c2ccc([C@@H](O)[C@@H](N)c3ccc(Cl)cc3)cc2)c1 (racemic) [Example 67, rac-erythro-N-[4′-[2-Amino-2-(4-chloro-phenyl)-1-hydroxy-ethyl]-biphenyl-3-yl]-acetamide]"
